The first data set has as its system Frankliniella occidentalis. The data set can be described thus: Insecticidal test against Frankliniella occidentalis. The conditions noted are these: 500 ppm drug solution sprayed on hatched larvae on Phaseolus vulgaris leaf pieces, four days after treatment.
From the text: Female adults of Frankliniella occidentalis were inoculated onto Phaseolus vulgaris leaf pieces, and after allowing them to lay eggs for one day, the female adults were removed. […] Four days after the treatment, the number of surviving larvae of this species was examined. […] In duplicate.
Consider `CC1(C)C(=O)C(C(=O)Nc2ccc(F)c(F)c2)=C(O)CC1c1ccc(C(F)(F)F)cc1` (stereo not drawn) [1-10], for which the “corrected mortality, rating of assessment” value (“corrected mortality, rating” for short) is listed as “D or higher”.

Take `CC1C(=O)C(C(=O)Nc2ccc(C(F)(F)F)cc2)=C(O)CC1c1ccc(C(F)(F)F)cc1` (stereo not drawn) [1-2]: the “corrected mortality, rating” value is “D or higher”.

The subject of a further data set is Laodelphax striatellus. The data set can be described thus: Insecticidal test against Laodelphax striatellus. The conditions noted are these: 500 ppm drug solution, rice seedlings immersed 30 seconds, three-instar insects, eight days after inoculation.
As to `O=C(Nc1ccc(F)cc1)C1=C(O)CC(c2ccc(C(F)(F)F)cc2)C2(CCCC2)C1=O` (stereo not drawn) [1-28], the “corrected mortality, rating” value was “D or higher”.

The subject of another data set is Plutella xylostella. The data set can be described thus: Insecticidal test against Plutella xylostella. As to conditions: 500 ppm drug solution, Chinese cabbage seedlings with eggs immersed about 30 sec, six days after immersion, 25° C.
From the text: Six days after the immersion in the drug solution, the number of surviving insects was examined. […] In triplicate using 10 per plot.
With `O=C(Nc1ccc(Oc2ccccc2)cc1)C1=C(O)CC(c2ccc(C(F)(F)F)cc2)C2(CCCCC2)C1=O` (stereo not drawn) [1-38], the “corrected mortality, rating” value is given as “D or higher”.

For the molecule `C#CCC1C(=O)C(C(=O)Nc2ccc(F)cc2)=C(O)CC1c1ccc(C(F)(F)F)cc1` (stereo not drawn) [1-7, N-(4-fluorophenyl)-5-hydroxy-3-oxo-2-(prop-2-yn-1-yl)-4′-(trifluoromethyl)-1,2,3,6-tetrahydro-[1,1′-biphenyl]-4-carboxamide], the “corrected mortality, rating” value was “D or higher”.

As for `CC1(C)C(=O)C(C(=O)Nc2ccc(F)nc2)=C(O)CC1c1ccc(Br)cn1` (stereo not drawn) [1-143], the “corrected mortality, rating” value is “D or higher”.

Consider `O=C1C(C(=S)Nc2ccc(F)cc2)=C(O)CC(c2ccc(C(F)(F)F)cc2)C12CCCC2` (stereo not drawn) [1-48], for which the “corrected mortality, rating” value is given as “D or higher”.

For `CC1(C)C(=O)C(C(=S)Nc2ccc(OC(F)(F)F)cc2)=C(O)CC1c1ccc(C(F)(F)F)cc1` (stereo not drawn) [1-22], the “corrected mortality, rating” value was “D or higher”.

`O=C1CC2c3ccc(C(F)(F)F)cc3CCC2C(O)=C1C(=O)Nc1ccc(F)cc1` (stereo not drawn) [2-2]: the “corrected mortality, rating” value is reported as “D or higher”.

Regarding `CC1C(=O)C(C(=S)Nc2ccc(F)cc2)=C(O)C2CCc3cc(C(F)(F)F)ccc3C12` (stereo not drawn) [2-9], the “corrected mortality, rating” value is recorded as “D or higher”.

Turning to `O=C(Nc1ccccc1-c1ccccc1)C1=C(O)CC(c2ccc(C(F)(F)F)cc2)C2(CCCCC2)C1=O` (stereo not drawn) [1-119], the “corrected mortality, rating” value is “D or higher”.

On to `CC1(C)C(=O)C(C(=O)Nc2ccc(F)cn2)=C(O)CC1c1ccc(Br)cn1` (stereo not drawn) [1-142], for which the “corrected mortality, rating” value is “D or higher”.

As for `Cl.O=C(Nc1ccc(F)cc1)C1=C(O)CC(c2ccc(C(F)(F)F)cc2)C2(CCNCC2)C1=O` (stereo not drawn) [1-136], the “corrected mortality, rating” value was “D or higher”.

Turning to `C#CCC1C(=O)C(C(=S)Nc2ccc(F)cc2)=C(O)CC1c1ccc(C(F)(F)F)cc1` (stereo not drawn) [1-18], the “corrected mortality, rating” value is reported as “D or higher”.

On to `CC1(C)C(=O)C(C(=S)Nc2ccc(F)cc2)=C(O)CC1c1ccc(C(F)(F)F)cc1` (stereo not drawn) [1-20], for which the “corrected mortality, rating” value is reported as “D or higher”.

Take `O=C(Nc1ccc(OC(F)(F)F)cc1)C1=C(O)CC(c2ccc(C(F)(F)F)cc2)C2(CCCCC2)C1=O` (stereo not drawn) [1-122]: the “corrected mortality, rating” value was “D or higher”.

Turning to `CC1C(=O)C(C(=O)Nc2ccc(F)cc2)=C(O)CC1(C)c1ccc(C(F)(F)F)cc1` (stereo not drawn) [1-3], the “corrected mortality, rating” value is recorded as “D or higher”.

In the case of `O=C1CC2c3cc(C(F)(F)F)ccc3CC2C(O)=C1C(=O)Nc1ccc(F)cc1` (stereo not drawn) [2-1], the “corrected mortality, rating” value was “D or higher”.

`O=C(Nc1ccc(F)cc1)C1=C(O)CC(c2ccc(C(F)(F)F)cc2)C2(CCCC2)C1=O` (stereo not drawn) [1-28]: the “corrected mortality, rating” value is recorded as “D or higher”.

As for `CC1C(=O)C(C(=O)Nc2ccc(F)cc2)=C(O)C2CCc3cc(C(F)(F)F)ccc3C12` (stereo not drawn) [2-4], the “corrected mortality, rating” value is listed as “D or higher”.

As for `O=C(Nc1ccc([N+](=O)[O-])cc1)C1=C(O)CC(c2ccc(C(F)(F)F)cc2)C2(CCCCC2)C1=O` (stereo not drawn) [1-118], the “corrected mortality, rating” value is “D or higher”.

On to `O=C(Nc1ccc(F)cc1)C1=C(O)CC(c2ccc(C(F)(F)F)cc2)C2(CCOCC2)C1=O` (stereo not drawn) [1-45], for which the “corrected mortality, rating” value is reported as “D or higher”.

As for `O=C(Nc1ccc(SC(F)(F)F)cc1)C1=C(O)CC(c2ccc(C(F)(F)F)cc2)C2(CCCCC2)C1=O` (stereo not drawn) [1-120], the “corrected mortality, rating” value is “D or higher”.

In the next data set the test system is Dirofilaria immitis. Put plainly: Influence evaluation test on the growth of Dirofilaria immitis. Type of data set: cell-based. The conditions noted are these: 168 h, read-out: development inhibition rate from the L3 stage larva to the L4-stage larva.
Regarding `C#CCC1C(=O)C(C(=O)Nc2ccc(F)cc2)=C(O)CC1c1ccc(C(F)(F)F)cc1` (stereo not drawn) [1-7, N-(4-fluorophenyl)-5-hydroxy-3-oxo-2-(prop-2-yn-1-yl)-4′-(trifluoromethyl)-1,2,3,6-tetrahydro-[1,1′-biphenyl]-4-carboxamide], the inhibition at 10 µM is no less than 50%.
